This note sets out measurements from patent publication US11279691B2, “Substituted pyridine and pyrazine compounds as PDE4 inhibitors” (Dart Neuroscience LLC, priority 2013, dated 2022).

For the assay, the target named is T1, PDE4D3 (Homo sapiens, UniProt Q08499).
T1 construct: GST
T1 sequence (Q08499 1-673 isoform Q08499-2): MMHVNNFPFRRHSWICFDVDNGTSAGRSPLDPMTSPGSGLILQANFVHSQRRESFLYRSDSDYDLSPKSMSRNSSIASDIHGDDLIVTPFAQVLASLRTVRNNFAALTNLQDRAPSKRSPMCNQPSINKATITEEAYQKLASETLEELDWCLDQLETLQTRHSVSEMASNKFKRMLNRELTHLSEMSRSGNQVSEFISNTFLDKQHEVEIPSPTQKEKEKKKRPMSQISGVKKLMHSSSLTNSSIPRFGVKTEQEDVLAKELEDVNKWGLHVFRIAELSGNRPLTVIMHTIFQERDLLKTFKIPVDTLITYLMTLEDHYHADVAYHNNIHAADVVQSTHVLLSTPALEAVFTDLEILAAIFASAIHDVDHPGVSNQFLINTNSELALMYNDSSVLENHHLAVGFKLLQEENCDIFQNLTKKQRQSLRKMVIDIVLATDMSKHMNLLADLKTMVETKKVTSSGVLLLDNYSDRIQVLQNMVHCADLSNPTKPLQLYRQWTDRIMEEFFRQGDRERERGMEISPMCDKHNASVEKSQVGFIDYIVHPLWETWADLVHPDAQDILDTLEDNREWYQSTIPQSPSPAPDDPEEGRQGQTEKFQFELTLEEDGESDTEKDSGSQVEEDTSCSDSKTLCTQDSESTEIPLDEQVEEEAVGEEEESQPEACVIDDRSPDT
It is filed as biochemical. The following applies: GST-tagged PDE4D3, 200 nM FAM-cAMP, 11-point dose-response; read-out: PD4d3 pEC50 (converted).
For the compound `COc1ncc(Cc2cnc(C#N)nc2)nc1-c1cccc(OC(F)F)c1` [Example 107, 5-({6-[3-(Difluoromethoxy)phenyl]-5-methoxypyrazin-2-yl}methyl)pyrimidine-2-carbonitrile], the EC50 is 100 to 1000 nM.
Next, `CCOc1ncc(Cn2cnc(C(F)(F)F)n2)cc1-c1cccc(OC(F)F)c1` [Example 162, 3-[3-(Difluoromethoxy)phenyl]-2-ethoxy-5-{[3-(trifluoromethyl)-1H-1,2,4-triazol-1-yl]methyl}pyridine]: 100 to 1000 nM; `Nc1ncn(Cc2cnc(OC(F)F)c(-c3cccc(Cl)c3)c2)n1` [Example 218, 1-{[5-(3-Chlorophenyl)-6-(difluoromethoxy)pyridin-3-yl]methyl}-1H-1,2,4-triazol-3-amine]: 100 to 1000 nM.
The value for `CCOc1ncc(Cn2cc(CO)cn2)cc1-c1cccc(Cl)c1` [Example 273, (1-{[5-(3-Chlorophenyl)-6-ethoxypyridin-3-yl]methyl}-1H-pyrazol-4-yl)methanol] was 100 to 1000 nM; that for `CCOc1ncc(Cn2cnc(CO)n2)cc1-c1ccccc1F` [Example 277, (1-((6-Ethoxy-5-(2-fluorophenyl)pyridin-3-yl)methyl)-1H-1,2,4-triazol-3-yl)methanol] was greater than 10000 nM.
Next, `CCCOc1ncc(Cc2cnc(N)nc2)cc1-c1ccc(F)c(F)c1` [Example 278, 5-((5-(3,4-Difluorophenyl)-6-propoxypyridin-3-yl)methyl)pyrimidin-2-amine]: less than 100 nM.
Take `CCOc1ncc(Cc2cnc(N)nc2)cc1-c1ccc(F)c(Cl)c1` [Example 279, 5-((5-(3-Chloro-4-fluorophenyl)-6-ethoxypyridin-3-yl)methyl)pyrimidin-2-amine]: the EC50 was less than 100 nM.
Next, `COc1ncc(Cc2ccc(CC(N)=O)cc2)cc1-c1cccc(Cl)c1` [Example 280, 2-(4-((5-(3-Chlorophenyl)-6-methoxypyridin-3-yl)methyl)phenyl)acetamide]: less than 100 nM.
For `COc1ncc(Cc2cnc(CC(N)=O)nc2)cc1-c1ccc(F)cc1` [Example 281, 2-(5-{[5-(4-Fluorophenyl)-6-methoxypyridin-3-yl]methyl}pyrimidin-2-yl)acetamide], the EC50 is less than 100 nM.
The value for `COc1ncc(Cc2cnc(C(N)=O)nc2)cc1-c1ccc(F)c(Cl)c1` [Example 282, 5-{[5-(3-Chloro-4-fluorophenyl)-6-methoxypyridin-3-yl]methyl}pyrimidine-2-carboxamide] was 100 to 1000 nM.
The value for `COc1ncc(Cc2cnc(NCCO)nc2)cc1-c1ccc(F)cc1` [Example 283, 2-[(5-{[5-(4-Fluorophenyl)-6-methoxypyridin-3-yl]methyl}pyrimidin-2-yl)amino]ethan-1-ol] was 100 to 1000 nM.
Take `COc1ncc(Cc2cnc(C(C)(C)C#N)nc2)cc1-c1cccc(Cl)c1` [Example 284, 2-(5-((5-(3-Chlorophenyl)-6-methoxypyridin-3-yl)methyl)pyrimidin-2-yl)-2-methylpropanenitrile]: the EC50 was 1000 to 10000 nM.
As for `N#CCc1ncn(Cc2cnc(OC(F)F)c(-c3cccc(Cl)c3)c2)n1` [Example 285, 2-(1-{[5-(3-chlorophenyl)-6-(difluoromethoxy)pyridin-3-yl]methyl}-1H-1,2,4-triazol-3-yl)acetonitrile], the EC50 is 100 to 1000 nM.
The value for `CCOc1ccc(Cc2cnc(OC)c(-c3cccc(Cl)c3)c2)nc1` [Example 286, 3-(3-Chlorophenyl)-5((5-ethoxypyridin-2-yl)methyl)-2-methoxy pyridine] was greater than 10000 nM; that for `COc1ncc(Cc2cnc(N)cn2)cc1-c1cccc(Cl)c1` [Example 287, 5-((5-(3-Chlorophenyl)-6-methoxypyridin-3-yl)methyl)pyrazin-2-amine] was less than 100 nM; that for `COc1ncc(Cc2cnc(N)cn2)cc1-c1ccc(F)c(Cl)c1` [Example 288, 5-((5-(3-Chloro-4-fluorophenyl)-6-methoxypyridin-3-yl)methyl)pyrazin-2-amine] was less than 100 nM.
On to `CCOc1cnc(Cc2cnc(OC)c(-c3cccc(Cl)c3)c2)cn1` [Example 289, 2-((5-(3-Chlorophenyl)-6-methoxypyridin-3-yl)methyl)-5-ethoxypyrazine], for which the EC50 is 100 to 1000 nM.
The value for `COc1ncc(Cc2cnc(NCCO)cn2)cc1-c1cccc(Cl)c1` [Example 290, 2-((5-((5-(3-Chlorophenyl)-6-methoxypyridin-3-yl)methyl)pyrazin-2-yl)amino) ethanol] was less than 100 nM; that for `COc1ncc(Cc2cnc(N3CCOCC3)nc2)cc1-c1cccc(Cl)c1` [Example 292] was 1000 to 10000 nM; that for `CCOc1ncc(Cc2cnc(N)nc2)nc1-c1ccc(F)c(F)c1` [Example 293, 5-((6-(3,4-difluorophenyl)-5-ethoxypyrazin-2-yl)methyl)pyrimidin-2-amine] was less than 100 nM.
Next, `CCOc1ncc(Cc2cnc(NCCO)nc2)nc1-c1ccc(F)c(F)c1` [Example 294, 2-((5-((6-(3,4-difluorophenyl)-5-ethoxypyrazin-2-yl)methyl)pyrimidin-2-yl)amino)ethanol]: less than 100 nM; `COc1ncc(Cn2nnnc2CCO)cc1-c1cccc(Cl)c1` [Example 295, 2-(1-((5-(3-Chlorophenyl)-6-methoxypyridin-3-yl)methyl)-1H-tetrazol-5-yl)ethanol]: 1000 to 10000 nM; `CCOc1ncc(Cn2nnnc2C)cc1-c1ccc(F)cc1` [Example 296, 2-Ethoxy-3-(4-fluorophenyl)-5-((5-methyl-1H-tetrazol-1-yl)methyl)pyridine]: less than 100 nM.
Next, `COc1ncc(Cn2cc(C(F)F)nc2C)cc1-c1ccnc(OC(F)F)c1` [Example 297, 2′-(Difluoromethoxy)-5-((4-(difluoromethyl)-2-methyl-1H-imidazol-1-yl)methyl)-2-methoxy-3,4′-bipyridine]: 100 to 1000 nM.
As for `COc1ncc(Cc2cnc(OCC(N)=O)nc2)cc1-c1cccc(Cl)c1` [Example 298, 2-((5-((5-(3-Chlorophenyl)-6-methoxypyridin-3-yl)methyl)pyrimidin-2-yl)oxy)acetamide], the EC50 is less than 100 nM.
Next, `COc1ncc(Cc2cnc(CO)nc2)cc1-c1cccc(Cl)c1` [Example 299, (5-((5-(3-Chlorophenyl)-6-methoxypyridin-3-yl)methyl)pyrimidin-2-yl)methanol]: less than 100 nM; `OCc1ncn(Cc2cnc(OCC(F)(F)F)c(-c3cccc(Cl)c3)c2)n1` [Example 300, (1-((5-(3-Chlorophenyl)-6-(2,2,2-trifluoroethoxy)pyridin-3-yl)methyl)-1H-1,2,4-triazol-3-yl)methanol]: 100 to 1000 nM; `COc1ncc(Cc2cnc(N)c(F)c2)cc1-c1ccnc(OC(F)F)c1` [Example 301, 5-((2′-(Difluoromethoxy)-2-methoxy-[3,4′-bipyridin]-5-yl)methyl)-3-fluoropyridin-2-amine]: less than 100 nM.
In the case of `COc1ncc(Cc2cnc(O)nc2)cc1-c1cccc(Cl)c1` [Example 302, 5-((5-(3-Chlorophenyl)-6-methoxypyridin-3-yl)methyl)pyrimidin-2-ol], the EC50 was 1000 to 10000 nM.
With `COc1ncc(Cc2cnc(OCCO)nc2)cc1-c1cccc(Cl)c1` [Example 303, 2-((5-((5-(3-Chlorophenyl)-6-methoxypyridin-3-yl)methyl)pyrimidin-2-yl)oxy)ethanol], the EC50 was less than 100 nM.
`COc1ncc(Cc2cnc(OC(F)F)nc2)cc1-c1cccc(Cl)c1` [Example 304, 5-((5-(3-Chlorophenyl)-6-methoxypyridin-3-yl)methyl)-2-(difluoromethoxy)pyrimidine]: the EC50 is 100 to 1000 nM.
The value for `COc1ncc(Cc2cnnc(C)c2)cc1-c1cccc(Cl)c1` [Example 305, 5-{[5-(3-Chlorophenyl)-6-methoxypyridin-3-yl]methyl}-3-methylpyridazine] was 100 to 1000 nM; that for `CCOc1ncc(Cc2cncc(F)c2)cc1-c1ccnc(OC(F)F)c1` [Example 306, 3-[2-(Difluoromethoxy)pyridin-4-yl]-2-ethoxy-5-[(5-fluoropyridin-3-yl)methyl]pyridine] was less than 100 nM.
For the compound `COc1ncc(Cn2ccc(C(N)=O)n2)cc1-c1ccnc(C#N)c1` [Example 307, 1-{[5-(2-Cyanopyridin-4-yl)-6-methoxypyridin-3-yl]methyl}-1H-pyrazole-3-carboxamide], the EC50 is 1000 to 10000 nM.
Consider `COc1ncc(Cn2ccc(C(N)=O)n2)cc1-c1cccc(Cl)c1` [Example 308, 1-{[5-(3-Chlorophenyl)-6-methoxypyridin-3-yl]methyl}-1H-pyrazole-3-carboxamide], for which the EC50 is 100 to 1000 nM.
Next, `COc1ncc(Cn2ccc(C(N)=O)n2)cc1-c1ccnc(OC(F)F)c1` [Example 309, 1-({5-[2-(Difluoromethoxy)pyridin-4-yl]-6-methoxypyridin-3-yl}methyl)-1H-pyrazole-3-carboxamide]: less than 100 nM; `CCOc1ncc(Cn2cnc(C(N)=O)c2)cc1-c1cccc(Cl)c1` [Example 310, 1-{[5-(3-Chlorophenyl)-6-ethoxypyridin-3-yl]methyl}-1H-imidazole-4-carboxamide]: 100 to 1000 nM; `CCOc1ncc(Cn2cnc(C(N)=O)c2)cc1-c1ccnc(OC(F)F)c1` [Example 311, 1-({5-[2-(Difluoromethoxy)pyridin-4-yl]-6-ethoxypyridin-3-yl}methyl)-1H-imidazole-4-carboxamide]: 100 to 1000 nM.
Take `CCOc1ncc(Cn2cnc(C(N)=O)c2)nc1-c1cccc(Cl)c1` [Example 312, 1-{[6-(3-Chlorophenyl)-5-ethoxypyrazin-2-yl]methyl}-1H-imidazole-4-carboxamide]: the EC50 was less than 100 nM.
Take `CCOc1ncc(Cn2ccc(C(N)=O)n2)nc1-c1cccc(Cl)c1` [Example 313, 1-{[6-(3-Chlorophenyl)-5-ethoxypyrazin-2-yl]methyl}-1H-pyrazole-3-carboxamide]: the EC50 is 100 to 1000 nM.
The value for `CCOc1ncc(Cn2cnc(C(N)=O)c2)nc1-c1ccc(F)c(F)c1` [Example 314, 1-{[6-(3,4-Difluorophenyl)-5-ethoxypyrazin-2-yl]methyl}-1H-imidazole-4-carboxamide] was 100 to 1000 nM.
